From ChEMBL document CHEMBL1144222, “Distinctive molecular inhibition mechanisms for selective inhibitors of human 11beta-hydroxysteroid dehydrogenase type 1” (Bioorg Med Chem, 2008)

Molecular target: 11-beta-hydroxysteroid dehydrogenase 1 (Homo sapiens, UniProt P28845)
Test: Inhibition of FLAG tagged human recombinant 11beta-HSD1 reductase activity expressed in Trichoplusia ni Hi5 cells
Format: cell-based, BTI-TN-5B1-4

Sequence of 11-beta-hydroxysteroid dehydrogenase 1 (P28845 whole entry): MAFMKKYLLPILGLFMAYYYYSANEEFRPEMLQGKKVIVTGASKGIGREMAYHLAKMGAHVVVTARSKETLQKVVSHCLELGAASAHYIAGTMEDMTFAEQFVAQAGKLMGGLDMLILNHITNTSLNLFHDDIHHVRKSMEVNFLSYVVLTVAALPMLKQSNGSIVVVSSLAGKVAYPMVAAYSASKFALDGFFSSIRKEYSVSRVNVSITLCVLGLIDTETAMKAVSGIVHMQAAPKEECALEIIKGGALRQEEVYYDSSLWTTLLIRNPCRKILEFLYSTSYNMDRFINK

## CC(C)n1c(-c2ccc(OC(F)(F)F)cc2)nnc1C1(c2ccc(F)cc2)CC1
  IC50: 1.6 nM
